Reference: US8808743B2, “Benzonatate compositions and methods of use” (priority 2010, dated 2014)

Test: Simulated gastrointestinal dissolution testing (FloVitro apparatus, USP simulated gastric and intestinal fluids)
Format: physicochemical
Details: 100 mg dose
Experimental: The dissolution test used procedures devised by DOW Chemical using their proprietary FloVitro™ dissolution apparatus described in U.S. Pat. No. 6,799,123B2 and in the publication titled “FloVitro™ Technology” published online at:
The system used two different media that were combined during the process. The fluid flow rates were:
Simulated gastric fluid=7.7 ml/min
Simulated intestinal fluid=13.1 ml/mi
Total flow through analyzer=20.8 ml/min
To Cell 1: USP simulated gastric fluid (no pepsin)
To Cell 2: USP simulated intestinal fluid (pH 6.8) (SIF)
The samples tested were: • a) 100 mg dose neat benzonatate • b) 220.48 mg of IRP69H resinate: 87.97 mg benzonatate dose • c) 225.15 mg of IRP64H resinate: 102.21 mg benzonatate dose a) 100 mg Neat Benzonatate

CCCCNc1ccc(C(=O)OCCOCCOCCOCCOCCOCCOCCOCCOCCOC)cc1 [BENZ, benzonatate]
Concentration of Homolog in Effluent Total (0 min): 0.00 mg/L | Concentration of Homolog in Effluent n = 3 (0 min): 0.00 mg/L | Concentration of Homolog in Effluent n = 4 (0 min): 0.00 mg/L | Concentration of Homolog in Effluent n = 5 (0 min): 0.00 mg/L | Concentration of Homolog in Effluent n = 6 (0 min): 0.00 mg/L | Concentration of Homolog in Effluent n = 7 (0 min): 0.00 mg/L | Concentration of Homolog in Effluent n = 8 (0 min): 0.00 mg/L | Concentration of Homolog in Effluent n = 9 (0 min): 0.00 mg/L | Concentration of Homolog in Effluent n = 10 (0 min): 0.00 mg/L | Concentration of Homolog in Effluent n = 11 (0 min): 0.00 mg/L | Concentration of Homolog in Effluent n = 12 (0 min): 0.00 mg/L | Concentration of Homolog in Effluent n = 13 (0 min): 0.00 mg/L | Concentration of Homolog in Effluent n = 14 (0 min): 0.00 mg/L | Concentration of Homolog in Effluent n = 15 (0 min): 0.00 mg/L | Concentration of Homolog in Effluent n = 16 (0 min): 0.00 mg/L | Concentration of Homolog in Effluent n = 17 (0 min): 0.00 mg/L | Concentration of Homolog in Effluent Total (10 min): 13.84 mg/L | Concentration of Homolog in Effluent n = 3 (10 min): 0.04 mg/L | Concentration of Homolog in Effluent n = 4 (10 min): 0.14 mg/L | Concentration of Homolog in Effluent n = 5 (10 min): 0.41 mg/L | Concentration of Homolog in Effluent n = 6 (10 min): 0.85 mg/L | Concentration of Homolog in Effluent n = 7 (10 min): 1.42 mg/L | Concentration of Homolog in Effluent n = 8 (10 min): 1.92 mg/L | Concentration of Homolog in Effluent n = 9 (10 min): 2.14 mg/L | Concentration of Homolog in Effluent n = 10 (10 min): 2.06 mg/L | Concentration of Homolog in Effluent n = 11 (10 min): 1.80 mg/L | Concentration of Homolog in Effluent n = 12 (10 min): 1.26 mg/L | Concentration of Homolog in Effluent n = 13 (10 min): 0.84 mg/L | Concentration of Homolog in Effluent n = 14 (10 min): 0.49 mg/L | Concentration of Homolog in Effluent n = 15 (10 min): 0.27 mg/L | Concentration of Homolog in Effluent n = 16 (10 min): 0.12 mg/L | Concentration of Homolog in Effluent n = 17 (10 min): 0.08 mg/L | Cumul. (cumulative release in effluent) (10 min): 1.44 mg | Concentration of Homolog in Effluent Total (20 min): 28.13 mg/L | Concentration of Homolog in Effluent n = 3 (20 min): 0.07 mg/L | Concentration of Homolog in Effluent n = 4 (20 min): 0.28 mg/L | Concentration of Homolog in Effluent n = 5 (20 min): 0.78 mg/L | Concentration of Homolog in Effluent n = 6 (20 min): 1.73 mg/L | Concentration of Homolog in Effluent n = 7 (20 min): 2.91 mg/L | Concentration of Homolog in Effluent n = 8 (20 min): 3.90 mg/L | Concentration of Homolog in Effluent n = 9 (20 min): 4.38 mg/L | Concentration of Homolog in Effluent n = 10 (20 min): 4.18 mg/L | Concentration of Homolog in Effluent n = 11 (20 min): 3.58 mg/L | Concentration of Homolog in Effluent n = 12 (20 min): 2.65 mg/L | Concentration of Homolog in Effluent n = 13 (20 min): 1.73 mg/L | Concentration of Homolog in Effluent n = 14 (20 min): 1.03 mg/L | Concentration of Homolog in Effluent n = 15 (20 min): 0.55 mg/L | Concentration of Homolog in Effluent n = 16 (20 min): 0.25 mg/L | Concentration of Homolog in Effluent n = 17 (20 min): 0.08 mg/L | Cumul. (cumulative release in effluent) (20 min): 8.00 mg | Concentration of Homolog in Effluent Total (30 min): 34.97 mg/L | Concentration of Homolog in Effluent n = 3 (30 min): 0.08 mg/L | Concentration of Homolog in Effluent n = 4 (30 min): 0.35 mg/L | Concentration of Homolog in Effluent n = 5 (30 min): 0.98 mg/L | Concentration of Homolog in Effluent n = 6 (30 min): 2.10 mg/L | Concentration of Homolog in Effluent n = 7 (30 min): 3.61 mg/L | Concentration of Homolog in Effluent n = 8 (30 min): 4.89 mg/L | Concentration of Homolog in Effluent n = 9 (30 min): 5.47 mg/L | Concentration of Homolog in Effluent n = 10 (30 min): 5.28 mg/L | Concentration of Homolog in Effluent n = 11 (30 min): 4.52 mg/L | Concentration of Homolog in Effluent n = 12 (30 min): 3.29 mg/L | Concentration of Homolog in Effluent n = 13 (30 min): 2.13 mg/L | Concentration of Homolog in Effluent n = 14 (30 min): 1.27 mg/L | Concentration of Homolog in Effluent n = 15 (30 min): 0.63 mg/L | Concentration of Homolog in Effluent n = 16 (30 min): 0.28 mg/L | Concentration of Homolog in Effluent n = 17 (30 min): 0.09 mg/L | Cumul. (cumulative release in effluent) (30 min): 15.52 mg | Concentration of Homolog in Effluent Total (40 min): 37.37 mg/L | Concentration of Homolog in Effluent n = 3 (40 min): 0.09 mg/L | Concentration of Homolog in Effluent n = 4 (40 min): 0.40 mg/L | Concentration of Homolog in Effluent n = 5 (40 min): 1.10 mg/L | Concentration of Homolog in Effluent n = 6 (40 min): 2.27 mg/L | Concentration of Homolog in Effluent n = 7 (40 min): 3.86 mg/L | Concentration of Homolog in Effluent n = 8 (40 min): 5.23 mg/L | Concentration of Homolog in Effluent n = 9 (40 min): 5.81 mg/L | Concentration of Homolog in Effluent n = 10 (40 min): 5.66 mg/L | Concentration of Homolog in Effluent n = 11 (40 min): 4.80 mg/L | Concentration of Homolog in Effluent n = 12 (40 min): 3.47 mg/L | Concentration of Homolog in Effluent n = 13 (40 min): 2.31 mg/L | Concentration of Homolog in Effluent n = 14 (40 min): 1.35 mg/L | Concentration of Homolog in Effluent n = 15 (40 min): 0.67 mg/L | Concentration of Homolog in Effluent n = 16 (40 min): 0.25 mg/L | Concentration of Homolog in Effluent n = 17 (40 min): 0.10 mg/L | Cumul. (cumulative release in effluent) (40 min): 23.20 mg | Concentration of Homolog in Effluent Total (50 min): 36.42 mg/L | Concentration of Homolog in Effluent n = 3 (50 min): 0.11 mg/L | Concentration of Homolog in Effluent n = 4 (50 min): 0.40 mg/L | Concentration of Homolog in Effluent n = 5 (50 min): 1.05 mg/L | Concentration of Homolog in Effluent n = 6 (50 min): 2.18 mg/L | Concentration of Homolog in Effluent n = 7 (50 min): 3.76 mg/L | Concentration of Homolog in Effluent n = 8 (50 min): 5.07 mg/L | Concentration of Homolog in Effluent n = 9 (50 min): 5.67 mg/L | Concentration of Homolog in Effluent n = 10 (50 min): 5.51 mg/L | Concentration of Homolog in Effluent n = 11 (50 min): 4.71 mg/L | Concentration of Homolog in Effluent n = 12 (50 min): 3.42 mg/L | Concentration of Homolog in Effluent n = 13 (50 min): 2.23 mg/L | Concentration of Homolog in Effluent n = 14 (50 min): 1.28 mg/L | Concentration of Homolog in Effluent n = 15 (50 min): 0.67 mg/L | Concentration of Homolog in Effluent n = 16 (50 min): 0.27 mg/L | Concentration of Homolog in Effluent n = 17 (50 min): 0.09 mg/L | Cumul. (cumulative release in effluent) (50 min): 30.53 mg | Concentration of Homolog in Effluent Total (60 min): 34.04 mg/L | Concentration of Homolog in Effluent n = 3 (60 min): 0.07 mg/L | Concentration of Homolog in Effluent n = 4 (60 min): 0.37 mg/L | Concentration of Homolog in Effluent n = 5 (60 min): 0.99 mg/L | Concentration of Homolog in Effluent n = 6 (60 min): 2.07 mg/L | Concentration of Homolog in Effluent n = 7 (60 min): 3.55 mg/L | Concentration of Homolog in Effluent n = 8 (60 min): 4.76 mg/L | Concentration of Homolog in Effluent n = 9 (60 min): 5.36 mg/L | Concentration of Homolog in Effluent n = 10 (60 min): 5.13 mg/L | Concentration of Homolog in Effluent n = 11 (60 min): 4.41 mg/L | Concentration of Homolog in Effluent n = 12 (60 min): 3.17 mg/L | Concentration of Homolog in Effluent n = 13 (60 min): 2.09 mg/L | Concentration of Homolog in Effluent n = 14 (60 min): 1.25 mg/L | Concentration of Homolog in Effluent n = 15 (60 min): 0.56 mg/L | Concentration of Homolog in Effluent n = 16 (60 min): 0.26 mg/L | Concentration of Homolog in Effluent n = 17 (60 min): 0.00 mg/L | Cumul. (cumulative release in effluent) (60 min): 63.41 mg
